In brackets after ≈: the same amount, converted by molar mass.
Columns and labels:
Assay type in all cases: functional, cell-based
MCF7 [1] = assay: Inhibition of G2 check point in gamma-irradiated human MCF7 cells expressing mutant p53 after 16 hrs by flow cytometry; conditions: MCF7, light or radiation study
MCF7 [2] = assay: Cytotoxicity against human MCF7 cells after 16 hrs by Celltiter assay; conditions: MCF7, 16 h
HCT-116 = assay: Cytotoxicity against human HCT116 cells

Compound	IC50 (MCF7 [1]) [µM]	IC50 (MCF7 [2]) [µM]	IC50 (HCT-116) [µg/mL]
O=C1NC(=O)c2c1c1[nH]cnc1c1[nH]c3ccccc3c21 [GRANULATIMIDE]	1		
O=C1NC(=O)c2c1c1c3ccccc3[nH]c1n1cncc21 [ISOGRANULATIMIDE]	1	40	
CC(=O)OCC(C)CCC[C@@H](C)[C@H]1CC[C@H]2[C@@H]3C[C@@H](O)[C@@]4(O)C[C@@H](O[C@@H]5OC[C@@H](O)[C@@H](OC(C)=O)[C@@H]5O)CC[C@]4(C)[C@H]3CC[C@]12C (stereo not given in full) [RIISEIN A]			2 (≈ 3.06 µM)
CC(=O)OCC(C)CCC[C@@H](C)[C@H]1CC[C@H]2[C@@H]3C[C@@H](O)[C@@]4(O)C[C@@H](O[C@@H]5OC[C@@H](OC(C)=O)[C@@H](O)[C@@H]5O)CC[C@]4(C)[C@H]3CC[C@]12C (stereo not given in full) [RIISEIN B]			2 (≈ 3.06 µM)
